Experimental data taken from article PMC6001238, “Iterative Chemical Engineering of Vancomycin Leads to Novel Vancomycin Analogs With a High in Vitro Therapeutic Index” (Frontiers in Microbiology, 2018).
In brackets after ≈: the same amount, converted by molar mass. Where two headings read alike, the source gives them in different places.

Columns and labels:
E. faecalis VSE 1 = test: MIC, broth microdilution, vancomycin-sensitive E. faecalis (VSE 1); assay type: cell-based, Enterococcus faecalis
In short: (§1)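 CLSI broth microdilution; water and uninoculated-broth controls; one arm supplemented with vancomycin, final 10 μM, given with analogue or control antibiotic.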

E. faecalis VRE 6 = test: MIC, broth microdilution, vancomycin-resistant E. faecalis VRE 6 (VanA); assay type: cell-based, Enterococcus faecalis
In short: as §1

E. faecalis VRE 53 = test: MIC, broth microdilution, vancomycin-resistant E. faecalis VRE 53 (VanA); assay type: cell-based, Enterococcus faecalis
In short: as §1

E. faecalis VRE 29 = test: MIC, broth microdilution, vancomycin-resistant E. faecalis VRE 29 (VanA); assay type: cell-based, Enterococcus faecalis
In short: as §1

E. faecalis VRE 37 = test: MIC, broth microdilution, vancomycin-resistant E. faecalis VRE 37 (VanA); assay type: cell-based, Enterococcus faecalis
In short: as §1

[1] = system: Murine leukemia (L1210) cells; test: Cytostatic activity, L1210 cell proliferation; assay type: cell-based; conditions: mean ± SD of three experiments; highest concentration tested 250 µM; 2 days; read-out: Toxicity (IC50) L1210
In short: (§2)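 Coulter counter cell counts after 37°C culture with compound; IC50 = concentration giving 50% growth inhibition vs negative control. Incubation: L1210 2 d, CEM 3 d, HeLa 4 d. Suspension density before mixing with an equal volume of dilution: 300,000–500,000 cells/mL.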

[2] = system: human T-lymphocyte (CEM) cells; test: Cytostatic activity, CEM cell proliferation; assay type: cell-based; conditions: mean ± SD of three experiments; highest concentration tested 250 µM; 3 days; read-out: Toxicity (IC50) CEM
In short: as §2

[3] = system: human cervix carcinoma (HeLa) cells; test: Cytostatic activity, HeLa cell proliferation; assay type: cell-based; conditions: mean ± SD of three experiments; highest concentration tested 250 µM; 4 days; read-out: Toxicity (IC50) HeLa
In short: as §2

[4] = system: L1210, CEM and HeLa cell lines; test: Cytostatic activity, average or summary over L1210, CEM and HeLa; assay type: cell-based
In short: as §2

[5] = system: S. aureus VSSA (ATCC 6538); test: MIC, broth microdilution, vancomycin-sensitive S. aureus (VSSA/MSSA, ATCC 6538); assay type: cell-based, Staphylococcus aureus
In short: as §1

S. aureus VISA/HIP5827 = test: MIC, broth microdilution, vancomycin-intermediate S. aureus VISA HIP5827; assay type: cell-based, Staphylococcus aureus; conditions: VISA/HIP5827; ratio of MIC of vancomycin and MIC of analogue
In short: as §1

S. aureus VRSA = test: MIC, broth microdilution, vancomycin-resistant S. aureus (VRSA); assay type: cell-based, Staphylococcus aureus
In short: as §1

MRSA KS2 = test: MIC, broth microdilution, MRSA KS2; assay type: cell-based, Staphylococcus aureus
In short: as §1

MRSA KS6 = test: MIC, broth microdilution, MRSA KS6; assay type: cell-based, Staphylococcus aureus
In short: as §1

MRSA KS89 = test: MIC, broth microdilution, MRSA KS89; assay type: cell-based, Staphylococcus aureus
In short: as §1

MRSA KS1 = test: MIC, broth microdilution, MRSA KS1; assay type: cell-based, Staphylococcus aureus
In short: as §1

33 clinical VRE isolates = test: MIC against a set of 33 clinical VRE isolates (range, MIC50, TI); assay type: cell-based, Enterococcus faecalis
In short: as §1

[6] = system: 24 clinical MRSA isolates; test: MIC against a set of 24 clinical MRSA isolates (range, MIC50, TI); assay type: cell-based, Staphylococcus aureus
In short: as §1

[7] = system: Clostridium difficile ATJ ribotype 014/20; test: MIC, plate drop assay, C. difficile ATJ ribotype 014/20; assay type: cell-based; conditions: C. difficile ATJ ribotype 014/20
In short: (§3)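 Lawns of each strain were made in soft BHI agar (0.4%) supplemented with CaCl2⋅2H2O and MgCl2⋅6H2O. Twofold compound dilutions (10 μL) were spotted, air-dried and incubated overnight at 37°C anaerobically; MIC read as cleared spots, in triplicate with water as negative control.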

[8] = system: Clostridium difficile AIU ribotype 027; test: MIC, plate drop assay, C. difficile AIU ribotype 027; assay type: cell-based; conditions: C. difficile AIU ribotype 027
In short: as §3

VE 148 (VanB) = test: MIC, VanB-type VRE strain VE 148; assay type: cell-based, Enterococcus; conditions: VE 148, VanB; read-out: MIC
In short: as §1

VE 149 (VanB) = test: MIC, VanB-type VRE strain VE 149; assay type: cell-based, Enterococcus; conditions: VE 149, VanB; read-out: MIC
In short: as §1

VE 150 (VanB) = test: MIC, VanB-type VRE strain VE 150; assay type: cell-based, Enterococcus; conditions: VE 150, VanB; read-out: MIC
In short: as §1

VE 152 (VanB) = test: MIC, VanB-type VRE strain VE 152; assay type: cell-based, Enterococcus; conditions: VE 152, VanB; read-out: MIC
In short: as §1

VE 157 (VanB) = test: MIC, VanB-type VRE strain VE 157; assay type: cell-based, Enterococcus; conditions: VE 157, VanB; read-out: MIC
In short: as §1

VE 82 (VanC1) = test: MIC, VanC1-type VRE strain VE 82; assay type: cell-based, Enterococcus gallinarum; conditions: VE 82, VanC1; read-out: MIC
In short: as §1

MRSA = test: Minimum bactericidal concentration against MRSA; assay type: cell-based, Staphylococcus aureus
Experimental: Plates were incubated overnight at 37°C and colony growth was inspected.

CNC(CC(C)C)C(=O)NC1C(=O)NC(CC(N)=O)C(=O)NC2C(=O)NC3C(=O)NC(C(=O)NC(C(=O)NCCCNC(=O)c4cc5ccccc5[nH]4)c4cc(O)cc(O)c4-c4cc3ccc4O)C(O)c3ccc(c(Cl)c3)Oc3cc2cc(c3OC2OC(CO)C(O)C(O)C2OC2CC(C)(N)C(O)C(C)O2)Oc2ccc(cc2Cl)C1O (stereo not shown) [Vanc-24]
MIC (E. faecalis VSE 1; Enterococcus faecalis VSE 1 (vancomycin-sensitive), read-out: MIC): 0.20 µM (≈ 0.33 µg/mL) | MIC-fold improvement vs. vancomycin (E. faecalis VSE 1; VSE 1, ratio of MIC of vancomycin and MIC of analogue): 8 | MIC (E. faecalis VRE 6; Enterococcus faecalis VRE 6 (vancomycin-resistant), read-out: MIC): 0.78 µM (≈ 1.29 µg/mL) | MIC-fold improvement vs. vancomycin (E. faecalis VRE 6; VRE 6, ratio of MIC of vancomycin and MIC of analogue): 256 | MIC (E. faecalis VRE 53; Enterococcus faecalis VRE 53 (vancomycin-resistant), read-out: MIC): 25 µM (≈ 41.2 µg/mL) | MIC-fold improvement vs. vancomycin (E. faecalis VRE 53; VRE 53, ratio of MIC of vancomycin and MIC of analogue): 16 | MIC (E. faecalis VRE 29; Enterococcus faecalis VRE 29 (vancomycin-resistant), read-out: MIC): 12.5 µM (≈ 20.6 µg/mL) | MIC-fold improvement vs. vancomycin (E. faecalis VRE 29; VRE 29, ratio of MIC of vancomycin and MIC of analogue): 32 | MIC (E. faecalis VRE 37; Enterococcus faecalis VRE 37 (vancomycin-resistant), read-out: MIC): 6.25 µM (≈ 10.3 µg/mL) | MIC-fold improvement vs. vancomycin (E. faecalis VRE 37; VRE 37, ratio of MIC of vancomycin and MIC of analogue): 64 | IC50 [1]: 164 ± 20 µM | IC50 [2]: 248 ± 3 µM | IC50 [3]: 83 ± 9 µM | IC50 ([4]; average IC50 used for TI in Table S5, >250 entered as 250, read-out: IC50): 165 µM | IC50 ([4]; average of L1210, CEM and HeLa, read-out: Toxicity (IC50) Average): 165 µM | MIC ([5]; Staphylococcus aureus VSSA, read-out: MIC): 0.20 µM (≈ 0.33 µg/mL) | MIC-fold improvement vs. vancomycin ([5]; VSSA, ratio of MIC of vancomycin and MIC of analogue): 4 | MIC-fold improvement vs. vancomycin (S. aureus VISA/HIP5827): 32 | MIC (S. aureus VRSA; Staphylococcus aureus VRSA, read-out: MIC): 1.56 µM (≈ 2.57 µg/mL) | MIC-fold improvement vs. vancomycin (S. aureus VRSA; VRSA, ratio of MIC of vancomycin and MIC of analogue): 64 | MIC-fold improvement vs. vancomycin (MRSA KS2; MRSA KS2, ratio of MIC of vancomycin and MIC of analogue): 4 | MIC (MRSA KS2; Staphylococcus aureus MRSA KS2, read-out: MIC): 0.20 µM (≈ 0.33 µg/mL) | MIC-fold improvement vs. vancomycin (MRSA KS6; MRSA KS6, ratio of MIC of vancomycin and MIC of analogue): 2 | MIC (MRSA KS6; Staphylococcus aureus MRSA KS6, read-out: MIC): 0.39 µM (≈ 0.643 µg/mL) | MIC-fold improvement vs. vancomycin (MRSA KS89; MRSA KS8, ratio of MIC of vancomycin and MIC of analogue): 2 | MIC (MRSA KS89; Staphylococcus aureus MRSA KS8, read-out: MIC): 0.39 µM (≈ 0.643 µg/mL) | MIC-fold improvement vs. vancomycin (MRSA KS1; MRSA KS1, ratio of MIC of vancomycin and MIC of analogue): 2 | MIC (MRSA KS1; Staphylococcus aureus MRSA KS1, read-out: MIC): 0.39 µM (≈ 0.643 µg/mL) | MIC Range (33 clinical VRE isolates; 33 clinical VRE isolates): 3.13 to 50 µM | TI (IC50/MIC50) (33 clinical VRE isolates; in vitro therapeutic index, VRE): 26 | MIC50 (33 clinical VRE isolates; median MIC, 33 clinical VRE isolates, read-out: MIC50): 6.25 µM (≈ 10.3 µg/mL) | MIC Range ([6]; 24 clinical MRSA isolates): 0.10 to 0.78 µM | TI (IC50/MIC50) ([6]; in vitro therapeutic index, MRSA): 825 | MIC50 ([6]; median MIC, 24 clinical MRSA isolates, read-out: MIC50): 0.20 µM (≈ 0.33 µg/mL) | MIC-fold improvement vs. vancomycin [7]: 11 | MIC-fold improvement vs. vancomycin [8]: 14 | MIC (VE 148 (VanB)): 3.13 µM (≈ 5.16 µg/mL) | MIC (VE 149 (VanB)): 1.56 µM (≈ 2.57 µg/mL) | MIC (VE 150 (VanB)): 1.56 µM (≈ 2.57 µg/mL) | MIC (VE 152 (VanB)): 1.56 µM (≈ 2.57 µg/mL) | MIC (VE 157 (VanB)): 1.56 µM (≈ 2.57 µg/mL) | MIC (VE 82 (VanC1)): 0.39 µM (≈ 0.643 µg/mL) | MBC relative to MIC (MRSA): MBC equaling their MIC values
